Data as given in patent US12103904B2, “Benzoylglycine derivatives and methods of making and using same” (Duke University, priority 2016, dated 2024).
Values after ≈ are worked out from the molar mass of the structure shown.

Tests used:
N. gonorrhoeae 35/02 = assay: Minimum Inhibitory Concentration (MIC) on GCB plates; format: cell-based, Neisseria gonorrhoeae; conditions: cephalosporin-intermediate resistant strain 35/02
Description: (§1) Non-piliated variants of the indicated strains of Neisseria gonorrhoeae were grown overnight on GCB plates, resuspended in GCB broth with Kellogg's supplements I and II (Kellogg et al. (1963) Neisseria gonorrhoeae. I. Virulence genetically linked to colonial variation. J Bacteriol 85, 1274-1279), 10 mM MgCl2, and 20 mM sodium bicarbonate at a final OD600 of 0.018 (˜1×10^7 cfu/ml). Aliquots (5 μl) of each strain was spotted onto GCB plates containing the compounds at 2-fold dilution intervals. The MIC was defined as the lowest concentration of antibiotic on which fewer than 5 colonies appeared after 24 hrs of incubation.
(§2) FA19 is an antibiotic-susceptible strain (Maness, M. J., and Sparling, P. F. (1973) Multiple antibiotic resistance due to a single mutation in Neisseria gonorrhoeae. J Infect Dis 128, 321-330). 35/02 is a cephalosporin-intermediate resistant strain of N. gonorrhoeae isolated in Sweden in 2002 (Lindberg et al. (2007) Neisseria gonorrhoeae isolates with reduced susceptibility to cefixime and ceftriaxone: association with genetic polymorphisms in penA, mtrR, porB1b, and ponA. Antimicrob Agents Chemother 51, 2117-2122). This strain contains a mosaic penA gene (encoding variants of Penicillin-Binding Protein 2) associated with cephalosporin resistance, but the strain is not fully resistant. […] Lastly, F89 has an MIC of ceftriaxone=2 μg/ml (Unemo et al. (2011) High-level cefixime- and ceftriaxone-resistant N. gonorrhoeae in France: novel penA mosaic allele in a successful international clone causes treatment failure. Antimicrob Agents Chemother 56, 1273-1280).
(§3) “MIC50” refers to an amount, concentration or dosage of a particular test compound that achieves a 50% inhibition of a growth of a target organism. […] Representative results are also illustrated in Table 1.

N. gonorrhoeae F89 [1] = assay: as above; format: cell-based, Neisseria gonorrhoeae; conditions: ceftriaxone-resistant strain F89
Description: as §1, §2, §3

N. gonorrhoeae FA19 = assay: as above; format: cell-based, Neisseria gonorrhoeae; conditions: antibiotic-susceptible strain FA19
Description: as §1, §2, §3

N. gonorrhoeae HO41 [2] = assay: as above; format: cell-based, Neisseria gonorrhoeae; conditions: ceftriaxone-resistant strain HO41
Description: as §1, §2, §3

[3] = system: multidrug-resistant H041 N. gonorrhoeae; assay: murine gonococcal infection model (in vivo clearance); set-up: species or system mice
Description: FIG. 2 illustrates in vivo efficacy of Example 3 in the murine gonococcal infection model. (A) efficacy of Example 3 administered intraperitoneally. […] (B) efficacy of Example 3 administrated orally. Mice were infected with multidrug-resistant H041 N. gonorrhoeae via an established protocol.
Female Mouse Model of Infection: Female BALB/c mice (Charles River Laboratories, NCI Frederick strain of inbred BALB/cAnNCr mice, strain code 555) were allowed to acclimate to the USU animal facility in autoclaved cages and bedding and with autoclaved water and chow for 10 days. After the acclimation period and […] to bacterial inoculation (day −4), vaginal smears were stained with a modified Wright's stain (Hem3, Fisher HealthCare Protocol) and examined to identify mice in anestrus or in the diestrus stage of the estrous cycle. […] On day −2, mice were inoculated vaginally with 20 μl of strain H041 rpsL suspended in PBS; suspensions were passed through a […] filter to remove aggregates and adjusted to the absorbance A600 reading at 600 nm (A600) that was predicted to be 5×10^5 CFU/ml, which is the concentration needed to inoculate mice with the number of viable gonococci needed to infect 80% of mice (infectious dose 80; ID80). […]
Vaginal swabs were quantitatively cultured for Gc on days −1 and 0 following vaginal inoculation to confirm infection prior to treatment. […]

B. cepacia = assay: MIC against clinical strains; format: cell-based; conditions: Burkholderia cepacia; B. cepacia clinical strains (n = 5)
Description: (§4) The antibiotic activities of the compounds useful in the methods of the disclosure are evaluated by measurements of minimum inhibitory concentrations (MICs) using E. coli, P. aeruginosa, K. pneumoniae and B. cepacia.

E. coli = assay: MIC against clinical strains; format: cell-based; conditions: Escherichia coli; E. coli clinical strains (n = 10)
Description: as §4

K. pneumoniae = assay: MIC against clinical strains; format: cell-based; conditions: Klebsiella pneumoniae; K. pneumoniae clinical strains (n = 10)
Description: as §4

P. aeruginosa = assay: MIC against clinical strains; format: cell-based; conditions: Pseudomonas aeruginosa; P. aeruginosa clinical strains (n = 10)
Description: as §4

E. coli strain O18:H7:K1 = assay: murine E. coli intraperitoneal sepsis model; format: in vivo; conditions: mice infected with E. coli O18:H7:K1, single dose
Description: FIG. 3 illustrates in vivo efficacy of Example 4 in the murine E. coli sepsis model. (A) dose response curves of Example 4 in a murine intraperitoneal sepsis model. Mice were infected with the E. coli strain O18:H7:K1.

N. gonorrhoeae F89 [4] = conditions: literature value (Unemo et al. 2011); cited from earlier work
N. gonorrhoeae HO41 [5] = conditions: literature value (Ohnishi et al. 2011); cited from earlier work

In the case of `C[C@@](O)(C(F)F)[C@H](NCCCc1ccc(-c2ccccc2)cc1)C(=O)NO`, the “MIC N. gonorrhoeae 35/02” value (N. gonorrhoeae 35/02) is reported as 0.03, the “MIC N. gonorrhoeae F89” value (N. gonorrhoeae F89 [1]) is reported as 0.03 and the “MIC N. gonorrhoeae FA19” value (N. gonorrhoeae FA19) is reported as 0.02. The “MIC N. gonorrhoeae HO41” value (N. gonorrhoeae HO41 [2]) was 0.03.

In the case of `C[C@@](O)(C(F)F)[C@H](NC(=O)c1ccc(-c2ccccc2)cc1)C(=O)NO` [Example 2, N-((2S,3S)-4,4-difluoro-3-hydroxy-1-(hydroxyamino)-3-methyl-1-oxobutan-2-yl)-[1,1′-biphenyl]-4-carboxamide], the “MIC N. gonorrhoeae 35/02” value (N. gonorrhoeae 35/02) is reported as 0.02, the “MIC N. gonorrhoeae F89” value (N. gonorrhoeae F89 [1]) is reported as 0.007 and the “MIC N. gonorrhoeae FA19” value (N. gonorrhoeae FA19) is reported as 0.002. The “MIC N. gonorrhoeae HO41” value (N. gonorrhoeae HO41 [2]) was 0.004.

In the case of `CC(C)(C)C(=O)ONC(=O)[C@@H](NC(=O)c1ccc(-c2ccccc2)cc1)[C@](C)(O)C(F)F` [Example 3, N-((2S,3S)-4,4-difluoro-3-hydroxy-3-methyl-1-oxo-1-((pivaloyloxy)amino)butan-2-yl)-[1,1′-biphenyl]-4-carboxamide], the “in vivo efficacy, administered orally” value ([3]; female BALB/c mice, vaginal infection with H041 rpsL, oral, four consecutive days) is reported as “exhibited in vivo efficacy” and the “in vivo efficacy, administered intraperitoneally” value ([3]; mice infected with H041 N. gonorrhoeae, intraperitoneal, once daily vs twice daily at half of the dose) is reported as “once daily treatment (circles) is more effective than the twice daily treatment at half of the dose”.

With `C[C@@](O)(C(F)F)[C@H](NC(=O)c1ccc(C#CC#CC2CC2)cc1)C(=O)NO` [Example 4, 4-(cyclopropylbuta-1,3-diyn-1-yl)-N-((2S,3S)-4,4-difluoro-3-hydroxy-1-(hydroxyamino)-3-methyl-1-oxobutan-2-yl)benzamide] the “MIC N. gonorrhoeae 35/02” value (N. gonorrhoeae 35/02) was 0.063, the “MIC N. gonorrhoeae F89” value (N. gonorrhoeae F89 [1]) was 0.008 and the “MIC N. gonorrhoeae FA19” value (N. gonorrhoeae FA19) was 0.016. The “MIC N. gonorrhoeae HO41” value (N. gonorrhoeae HO41 [2]) was 0.026, the MIC50 (B. cepacia) was 0.03 µg/mL (≈ 0.0797 µM) and the MIC90 (B. cepacia) was 0.13 µg/mL (≈ 0.345 µM). For the same compound, the MIC50 (E. coli) was 0.02 µg/mL (≈ 0.0531 µM), the MIC90 (E. coli) was 0.02 µg/mL (≈ 0.0531 µM) and the MIC50 (K. pneumoniae) was 0.06 µg/mL (≈ 0.159 µM). The MIC90 (K. pneumoniae) was 0.25 µg/mL (≈ 0.664 µM), the MIC50 (P. aeruginosa) was 0.16 µg/mL (≈ 0.425 µM) and the MIC90 (P. aeruginosa) was 0.32 µg/mL (≈ 0.85 µM). For the same compound, the “clearance of E. coli infection” value (E. coli strain O18:H7:K1) was “cleared E. coli infections in the majority of mice”.

In the case of `CO/N=C(\C(=O)N[C@@H]1C(=O)N2C(C(=O)O)=C(CSc3nc(=O)c(=O)[nH]n3C)CS[C@H]12)c1csc(N)n1` [ceftriaxone], the “MIC of ceftriaxone, strain F89” value (N. gonorrhoeae F89 [4]) is given as 2 µg/mL and the “MIC of ceftriaxone, strain H041” value (N. gonorrhoeae HO41 [5]) is given as 2 to 4 µg/mL.
